{"source": "patent US9278086B2", "about": "“Combination therapy and uses thereof for treatment and prevention of parasitic infection and disease” (The Royal Institution for the Advancement of …, priority 2010, dated 2016)", "key": {"Plasmodium chabaudi [1]": {"system": "Plasmodium chabaudi", "assay": "4-day test, P. chabaudi (10^7 pRBC i.v.) in pantetheinase-sufficient C57BL/6 mice, blood parasitemia days 4 and 5", "assay_type": "in vivo", "settings": "for Inhibition of parasitemia Day 4 / Inhibition of parasitemia Day 5: days 0-3", "method": "(§1) A/J and C57BL/6 (B6) mice were purchased from the Jackson Laboratories (Bar Harbor, Me.) and were housed at McGill University according to the guidelines of the Canadian Council on Animal Care. An LDH virus-free isolate of P. chabaudi AS was maintained by weekly passage in A/J mice. Mice were infected intravenously into the tail vein (i.v.) with 10^6 or 10^7 pRBC suspended in pyrogen-free saline. Following infection, the percentage of pRBC was determined daily on thin blood smears stained with Dif-Quik™ (Dade Behring, Newark, Del.), as described (Fortin A, et al. (2001) Proc Natl Acad Sci USA 98: 10793-10798).\n(§2) Cysteamine hydrochloride (Sigma, Burlington ON) was prepared in PBS. Chloroquine hydrochloride, artesunate and dihydroartemisinin were provided by Dafra Pharmaceuticals; chloroquine was prepared in PBS, artesunate and DHA were prepared in 5% sodium bicarbonate and diluted in water to appropriate concentrations. All solutions were prepared fresh daily, filter sterilized and injections were performed intra-peritoneally (i.p) or subcutaneously (s.c.) for 4 days or according to treatment regimen. Mice were weighed prior to treatment to determine appropriate doses and injection volumes ranged from 100-400 μL per mouse. In the case of animals treated with two drugs, artemisinin derivatives were administered first (due to the short half life of cysteamine), followed by cysteamine 5-10 minutes later on alternate sides. Untreated control animals were injected with PBS alone.\n(§3) Groups with normally distributed data points were compared using parametric unpaired t-tests, while groups with non-Gaussian distributions were compared using non-parametric Mann-Whitney tests. Survival differences were analyzed using the Log-Rank test. […] Standard error of percent inhibition was calculated from individual mice compared to the mean parasitemia level of the control group.\n(§4) The effect of Cys on the potency and efficacy of the anti-malarial artemisinin derivatives was tested. […] Synergy (Tallarida R J (2001) J Pharmacol Exp Ther 298: 865-872) is defined as a total anti-malarial activity (reduction in blood parasitemia compared to untreated controls in a standard 4-day test) of the two compounds administered together being greater than the sum of the independent activities of the two compounds given alone. We tested combinations of Cys and either artesunate (ART) or dihydroartemisinin (DHA), the bioactive form of artemisinin. Pantetheinase-deficient mice were infected with P. chabaudi (10^7 pRBC, i.v.) and treated with Cys (170 mg/kg) and/or sub-optimal doses of ART (0.2 or 0.5 mg/kg) (FIG. 3A) or DHA (0.15 or 0.3 mg/kg) (FIG. 3B) from day 0-3 and parasitemia was monitored on days 4 and 5. […] Potentiation of the anti-malarial activity of ART (0.5 mg/kg) by Cys was also clearly evident in these C57BL/6 mice at both days 4 and 5 post-infection, with combined treatment causing a 65-71% reduction in parasitemia compared to PBS controls, greater than either compound tested alone (13-29%) (TABLE 1)."}, "Plasmodium chabaudi [2]": {"system": "Plasmodium chabaudi", "assay": "4-day test, P. chabaudi (10^7 pRBC i.v.) in pantetheinase-deficient A/J mice, blood parasitemia days 4 and 5", "assay_type": "in vivo", "settings": "for inhibition of parasitemia compared to PBS-treated controls: ART 0.2 mg/kg alone; for Inhibition of parasitemia Day 4 / Inhibition of parasitemia Day 5: days 0-3", "method": "as §1, §2, §3, §4\nIt was subsequently examined whether Cys potentiation of ART was dose dependent. Initially, Cys doses of 60, 100, 140 and 180 mg/kg were tested with a sub-optimal ART dose of 0.2 mg/kg. The drugs were administered from day 0-3 post infection, parasitemia was counted at day 4 and day 5 and the percent inhibition was calculated compared to PBS-treated controls (FIG. 4A). At 0.2 mg/kg, ART alone inhibits parasitemia by ˜20% (day 4) and 40% (day 5) while inhibition by Cys alone was partially dose dependent (varying between 10% and 25%). […] It was also assessed whether Cys could potentiate low doses of artesunate which, given alone, have no significant effect on parasitemia. In this experiment, Cys (170 mg/kg) was administered in combination, or not, with increasing doses of ART (0.05, 0.1, 0.2, 0.4 mg/kg) in the same 4-day experimental protocol."}, "Plasmodium chabaudi [3]": {"system": "Plasmodium chabaudi", "assay": "Progression of P. chabaudi infection (10^6 pRBC i.v.) in pantetheinase-sufficient B6 mice", "assay_type": "in vivo", "method": "as §1, §2\nTo investigate whether the effects on parasite burden over the course of infection would also be observed with a pantetheinase-sufficient mouse strain, a similar experiment was performed using female B6 mice. Groups of mice were infected with 10^6 P. chabaudi pRBC i.v. and treated with PBS, 1 mg/kg or 30 mg/kg of Art, or 1 mg/kg or 30 mg/kg of Art plus 60 mg/kg of Cys for 4 days. […] As in A/J mice, the effect of Cys addition to 1 mg/kg of Art has a clear effect on early parasite replication at day 6 (FIG. 6B). […] B6 mice were able to completely clear parasite burdens and survive the infection, even in the control PBS-treated group."}, "Plasmodium chabaudi [4]": {"system": "Plasmodium chabaudi", "assay": "Progression, resolution and survival of lethal P. chabaudi infection (10^6 pRBC i.v.) in A/J mice", "assay_type": "in vivo", "method": "as §1, §2\nIt was investigated if low dose Cys could potentiate standard doses of ART that show therapeutic activity in vivo and concurrently determined possible long-term effects on patent parasitemia, resolution of infection and survival in a lethal infection model. In this protocol, mice were infected with 10^6 pRBC P. chabaudi (i.v.) and treated with Cys (60 mg/kg) and/or ART (0.5, 1, 2, 5 and 10 mg/kg) for 4 days (days 0-3), while blood parasitemia and survival were followed for 22 days. Control animals treated with either PBS or Cys alone (60 mg/kg) developed high parasite burdens, which peaked at day 6, and all mice succumbed to the infection by day 7 (FIGS. 5A and 5C). […] Likewise, although all mice treated with 0.5 mg/kg ART succumbed to the infection early (day 8), mice additionally receiving Cys survived until day 9; moreover, addition of Cys to 1.0 mg/kg ART completely rescued animals from lethality of infection, with 100% survival in this group (FIGS. 5B, 5C)."}, "[5]": {"settings": "humans, oral dose 1475 mg Cys bitartrate (500 mg cysteamine base), cited from earlier work"}, "[6]": {"settings": "artesunate 0.5 mg/kg + cysteamine 170 mg/kg i.p."}, "[7]": {"settings": "A/J mice, artesunate 0.2 mg/kg + cysteamine 170 mg/kg i.p."}, "[8]": {"settings": "A/J mice, artesunate 0.2 mg/kg alone"}, "[9]": {"settings": "A/J mice, artesunate 0.5 mg/kg + cysteamine 170 mg/kg i.p."}, "[10]": {"settings": "A/J mice, artesunate 0.5 mg/kg alone"}}, "note": "Marks after values point to notes of the source that are not given here.", "data": [{"smiles": "C[C@H]1[C@H](OC(=O)CCC(=O)O)O[C@@H]2O[C@@]3(C)CC[C@H]4[C@H](C)CC[C@@H]1[C@@]24OO3", "note": "[Artesunate, artesunate]", "values": [{"measurement": "reduction in parasitemia compared to PBS controls", "setting": "Plasmodium chabaudi [1]; ART 0.5 mg/kg combined with Cys 170 mg/kg, days 4 and 5", "value": "65-71%"}, {"measurement": "Inhibition of parasitemia Day 4", "setting": "Plasmodium chabaudi [1]; [6]", "value": "71* % PBS control"}, {"measurement": "Inhibition of parasitemia Day 5", "setting": "Plasmodium chabaudi [1]; [6]", "value": "65* % PBS control"}, {"measurement": "Inhibition of parasitemia Day 4", "setting": "Plasmodium chabaudi [1]; artesunate 0.5 mg/kg alone", "value": 29, "unit": "% PBS control"}, {"measurement": "Inhibition of parasitemia Day 5", "setting": "Plasmodium chabaudi [1]; artesunate 0.5 mg/kg alone", "value": 21, "unit": "% PBS control"}, {"measurement": "inhibition of parasitemia compared to PBS-treated controls", "setting": "Plasmodium chabaudi [2]; A/J mice, day 4 (FIG. 4A)", "value": "~20", "unit": "%"}, {"measurement": "inhibition of parasitemia compared to PBS-treated controls", "setting": "Plasmodium chabaudi [2]; A/J mice, day 5 (FIG. 4A)", "value": 40, "unit": "%"}, {"measurement": "inhibition of parasitemia replication", "setting": "Plasmodium chabaudi [2]; A/J mice, ART 0.1 and 0.2 mg/kg combined with Cys 170 mg/kg (FIG. 4C)", "value": "60-75%"}, {"measurement": "inhibition of parasitemia replication", "setting": "Plasmodium chabaudi [2]; A/J mice, ART 0.1 and 0.2 mg/kg used alone (FIG. 4C)", "value": "< 10", "unit": "%"}, {"measurement": "effect of addition of Cys on inhibition of parasitemia versus additive effect of the two compounds", "setting": "Plasmodium chabaudi [2]; A/J mice, Cys 170 mg/kg added to ART (0.2 or 0.5 mg/kg) or DHA (0.15 or 0.3 mg/kg)", "value": "synergistic effect"}, {"measurement": "potentiation of low-dose artesunate by Cys", "setting": "Plasmodium chabaudi [2]; A/J mice, Cys 170 mg/kg with ART 0.05, 0.1, 0.2, 0.4 mg/kg (FIG. 4C)", "value": "≥ 3", "unit": "fold"}, {"measurement": "Inhibition of parasitemia Day 4", "setting": "Plasmodium chabaudi [2]; [7]", "value": "65* % PBS control"}, {"measurement": "Inhibition of parasitemia Day 5", "setting": "Plasmodium chabaudi [2]; [7]", "value": "56* % PBS control"}, {"measurement": "Inhibition of parasitemia Day 4", "setting": "Plasmodium chabaudi [2]; [8]", "value": 30, "unit": "% PBS control"}, {"measurement": "Inhibition of parasitemia Day 5", "setting": "Plasmodium chabaudi [2]; [8]", "value": 20, "unit": "% PBS control"}, {"measurement": "Inhibition of parasitemia Day 4", "setting": "Plasmodium chabaudi [2]; [9]", "value": 93, "unit": "% PBS control"}, {"measurement": "Inhibition of parasitemia Day 5", "setting": "Plasmodium chabaudi [2]; [9]", "value": "80* % PBS control"}, {"measurement": "Inhibition of parasitemia Day 4", "setting": "Plasmodium chabaudi [2]; [10]", "value": 65, "unit": "% PBS control"}, {"measurement": "Inhibition of parasitemia Day 5", "setting": "Plasmodium chabaudi [2]; [10]", "value": 43, "unit": "% PBS control"}, {"measurement": "symptoms of disease (ruffled fur, lethargy)", "setting": "Plasmodium chabaudi [2]; mice receiving both Cys and ART/DHA, compared to PBS or only one compound", "value": "fewer symptoms of disease"}, {"measurement": "outward symptoms of disease (lethargy, ruffled fur)", "setting": "Plasmodium chabaudi [3]; 30 mg/kg Art plus Cys 60 mg/kg", "value": "did not display any outward symptoms of disease"}, {"measurement": "parasite levels", "setting": "Plasmodium chabaudi [3]; 30 mg/kg Art plus Cys 60 mg/kg", "value": "under 12 % pRBC"}, {"measurement": "parasite levels and peak compared to Art administered alone", "setting": "Plasmodium chabaudi [3]; Art 1 or 30 mg/kg + Cys 60 mg/kg, 4 days", "value": "reduction in parasite levels and a delay in the peak"}, {"measurement": "day until which mice survived", "setting": "Plasmodium chabaudi [4]; ART 0.5 mg/kg + Cys 60 mg/kg", "value": 9, "unit": "days"}, {"measurement": "day at which all mice succumbed to the infection", "setting": "Plasmodium chabaudi [4]; ART 0.5 mg/kg alone", "value": 8, "unit": "days"}, {"measurement": "survival", "setting": "Plasmodium chabaudi [4]; ART 1.0 mg/kg + Cys 60 mg/kg", "value": 100, "unit": "%"}, {"measurement": "effect on infection (onset and peak of parasitemia)", "setting": "Plasmodium chabaudi [4]; ART alone 0.5-10 mg/kg, dose-dependent", "value": "delay in the onset of parasitemia and a reduction of peak parasitemia"}, {"measurement": "further reduction in parasitemia at day 6", "setting": "Plasmodium chabaudi [4]; Cys 60 mg/kg added to 0.5 mg/kg or 1 mg/kg ART", "value": "60-70%"}, {"measurement": "peak levels of parasitemia relative to the corresponding dose of ART alone", "setting": "Plasmodium chabaudi [4]; Cys 60 mg/kg added to all ART doses tested", "value": "reduction of peak levels of parasitemia"}]}, {"smiles": "NCCS.O=C(O)C(O)C(O)C(=O)O", "note": "(stereo not shown) [Cys bitartrate, cysteamine bitartrate]", "values": [{"measurement": "AUCT0-Tlast", "setting": "[5]", "value": 3613, "unit": "min"}]}, {"smiles": "NCCS", "note": "[Cys bitartrate, cysteamine bitartrate]", "values": [{"measurement": "Cmax", "setting": "[5]; read-out: peak plasma concentration (Cmax)", "value": 39, "unit": "µM"}]}]}
